Source: US20240226117A1, “TREATMENT OF CONGENITAL ADRENAL HYPOPLASIA” (ReveraGen BioPharma, Inc., priority 2021, published 2024)

Tested on: DMD participants
Assay: Physician-reported adverse events in vamorolone trials and published corticosteroid studies
Assay type: in vivo, human
Description: Study visits took place quarterly, including assessment of clinical laboratory results, vital signs, and AEs. All AEs were coded using the Medical Dictionary for Regulatory Activities (MedDRA version 19.0) system for reporting (preferred term and system organ class). Clinical efficacy assessments were performed at baseline of the VBP15-002 study, at six months (end of VBP15-003 study), and the 12-month midpoint visit of the VBP15-LTE study.
Treatment-emergent AEs (TEAEs) have been published for the 2-week treatment MAD study (VBP15-002) and the 24-week dose-finding extension study (VBP15-003). TEAEs were reported with similar incidence by participants in all four vamorolone groups.
A Data and Safety Monitoring Board report on the VBP15-LTE study covering all participants enrolled in the VBP15-LTE study (inclusive beyond the 12-month midpoint assessment) included three serious AEs (2 myoglobinuria events [in the same participant] and one pneumonia), all deemed unrelated to study drug. For all reported TEAEs, 402 were deemed unrelated to vamorolone, 37 were deemed remotely related, 29 were deemed possibly related, 11 were deemed probably related, and three were deemed definitely related. Of the 14 AEs probably and definitely related to vamorolone, 10 were weight gain, 2 were increased appetite, 1 was Cushingoid features, and 1 was irritability.
The incidences of physician-reported AEs typically for corticosteroid treatment were determined for participants that had been treated with vamorolone 6.0 mg/kg/day (for any duration), taken from the March 2019 Data Safety Update Report (DSUR) (pharmacovigilance report). Incidence rates of Cushingoid features, weight gain, hirsutism, and behavior change were studied (Table 8).

[1] = 6.0 mg/kg/day vamorolone (any duration), n = 38, DSUR 13 Mar. 2019

SMILES: C[C@@H]1C[C@H]2[C@@H]3CCC4=CC(=O)C=C[C@]4(C)C3=CC[C@]2(C)[C@@]1(O)C(=O)CO [Vamorolone, 17α,21-dihydroxy-16α-methylpregna-1,4,9(11)-triene-3,20-dione]
- Incidence of physician-reported Cushingoid [1]: 2.6%
- Incidence of physician-reported behavior change [1]: 0%^2
- Incidence of physician-reported hypertrichosis/hirsutism [1]: 0%
- Incidence of physician-reported weight gain [1]: 13.2%
- Cushingoid features among the 14 AEs probably and definitely related (VBP15-LTE): 1
- increased appetite among the 14 AEs probably and definitely related (VBP15-LTE): 2
- irritability among the 14 AEs probably and definitely related (VBP15-LTE): 1
- weight gain among the 14 AEs probably and definitely related (VBP15-LTE): 10
- TEAEs deemed definitely related (VBP15-LTE, all reported TEAEs): three
- TEAEs deemed possibly related (VBP15-LTE, all reported TEAEs): 29
- TEAEs deemed probably related (VBP15-LTE, all reported TEAEs): 11
- TEAEs deemed remotely related (VBP15-LTE, all reported TEAEs): 37
- TEAEs deemed unrelated to vamorolone (VBP15-LTE, all reported TEAEs): 402
- serious AEs in VBP15-LTE (Data and Safety Monitoring Board report) (all LTE participants, all deemed unrelated to study drug): three
- safety and tolerability over the 24-week treatment period (VBP15-003) (oral, all doses tested (0.25, 0.75, 2.0, 6.0 mg/kg/day)): safe and well-tolerated
